What was measured:
[1] = system: xanthium strumarium (XANST), setaria viridis (SETVI), abutilon theophrasti (ABUTH), chenopodium album (CHEAL); assay: Adjuvant with herbicide fomesafen, track sprayer, mean across four weed species; assay type: in vivo; conditions: fomesafen 60 or 120 g/ha; butylene oxide adjuvants 0.2%, TEHP and Turbocharge 0.5%; 7 and 13 days
Experimental: In this example Sample 13 from Table 1 was compared to the oil adjuvant blend Turbocharge™. The herbicide fomesafen was applied to the weed species xanthium strumarium (XANST), setaria viridis (SETVI), abutilon theophrasti (ABUTH), and chenopodium album (CHEAL) at rates of 60 or 120 grams per hectare, using a laboratory track sprayer. […] Four effects were evaluated: pesticide rate (2 levels), adjuvant type (two levels), weed species (four levels) and days after application (three levels). A standard simple linear model was constructed to judge the significance of these effects. […] A model was fitted using multiple linear regression using the statistics package JMP (SAS group). The effect of each adjuvant was pulled out from the model and the least significant differences evaluated using a Student's t method. In further examples, where a greater number than two adjuvants were compared, Tukey's HSD method was used. […]
In this example the rate response of the butylene oxide adjuvant number 13 of Table 1 was measured to display the excellent performance of this adjuvant at very low rates. compared to the adjuvant Brij™96V. […]
In this example the rate response of the butylene oxide sample 27 of Table 1 was measured, displaying the excellent performance of this adjuvant compared to the commercial adjuvant Turbocharge™, used at a rate of 0.5% by volume. […]

lolium perenne (LOLPE) = assay: Adjuvant with herbicide pinoxaden on LOLPE; assay type: in vivo; conditions: 14 and 21 days
Experimental: In this example the response of the butylene oxide adjuvant 13 of Table 1 was measured at an application rate of 0.2% of the volume of the spray solution used. It was compared to the adjuvant tris 2-ethylhexyl phosphate [TEHP], which was applied at the higher rate of 0.5% by volume. The herbicide pinoxaden was applied at rates of 7.5, 11.25 or 15 grams per hectare by a laboratory track sprayer to the weed species lolium perenne (LOLPE), alopecurius myosuirides (ALOMY), and avena fatua (AVEFA). In each case the experiments were replicated four times and the percentage damage to the weeds was assessed visually at time periods of 14 and 21 days after application.

CCCCC(CC)COP(=O)(OCC(CC)CCCC)OCC(CC)CCCC (stereo not drawn) [TEHP, tris 2-ethylhexyl phosphate]
Mean kill across weeds (%) [1]: 72.7% | mean efficacy (percentage damage to the weeds), LOLPE (lolium perenne (LOLPE); pinoxaden 7.5, 11.25 or 15 g/ha, Sample 13 0.2%, TEHP 0.5%): 58.06; A % | mean efficacy (percentage damage to the weeds), LOLPE (lolium perenne (LOLPE); pinoxaden 7.5 or 15 g/ha, butylene oxide adjuvants 0.2%, TEHP 0.5% v/v): 82.5; A %
